Measured values: patent publication US20070207975A1, “Materials and methods for treating and preventing Her-2/neu overexpressing, FAS-elevated cancer cells” (EVANSTON NORTHWESTERN HEALTHCARE, priority 2006, published 2007)

Assays:
Assay type in all cases: cell-based, human
[1] = test system: p185^Her-2/neu; test: Flow cytometric analysis of cell surface-associated p185Her-2/neu; conditions: for reduction of cell surface-associated p185^Her-2/neu expression: 10 mM OA, 48 hours, 0.1% FBS; for down-regulation of p185^Her-2/neu expression: OA 5 mM, trastuzumab 5 mg/ml
Source text: FIG. 1. […] FIG. 2. […] The amount of cell surface-associated p185^Her-2/neu was quantified by flow cytometric analyses using a specific antibody against the extracellular domain of p185^Her-2/neu (Ab-5), as described herein. The mean fluorescence signal±SD (n=3) was quantified using the geo mean fluorescence (GM) parameter provided with the Cell Quest Software (Becton Dickinson). […] After labeling, cells were washed thoroughly, and localization of p185^Her-2/neu was detected by indirect immunofluorescence by incubating with FITC-conjugated anti-mouse IgG. After counterstaining with DAPI, cells were examined and photographed using a Zeiss fluorescent microscope equipped with a built-in camera. […] Before experiments, cells were serum-starved overnight and then cultured in IMEM containing 0.1% FBS in the absence or presence of GLA (Sigma Chemical Co., St. Louis, Mo.). GLA was prepared at a concentration of 1 mg/mL in ethanol and was added to a final concentration of 0, 5, 10, or 20 μg/mL; an equal volume of ethanol was added to control cells. […] A) Cell surface expression of Her-2/neu protein in BT-474 and SK-Br3 cells was determined by flow cytometry using a mouse anti-Her-2/neu antibody directed against the extracellular domain of the p185^Her-2/neu oncoprotein (clone Ab-5; Oncogene Research Products; San Diego, Calif.). Briefly, after GLA or control treatment, cells were washed, harvested, resuspended in phosphate-buffered saline (PBS) containing 1% FBS, and incubated with 5 μg/mL Ab-5 antibody for 1 hour at 4° C. The cells were washed again and then incubated with a fluorescein isothiocyanate (FITC)-conjugated anti-mouse IgG secondary antibody (Jackson ImnunoResearch Laboratories, West Grove, Pa.) diluted 1:200 in cold PBS containing 1% FBS for 45 minutes at 4° C. The cells were washed once more in cold PBS, and flow cytometric analysis was performed with a FACScalibur flow cytometer (Becton Dickinson, San Diego, Calif.) equipped with Cell Quest Software (Becton Dickinson). […] As a control for nonspecific immunofluorescence, cells were stained with the secondary antibody alone (solid black line). The mean fluorescence signal associated with cells for labeled p185^Her-2/neu was quantified using the Geo Mean (GM) fluorescence parameter provided with the software. […] B) Immunoblot analysis of Her-2/neu and PEA3 proteins in control- and GLA-treated BT-474 and SK-Br3 cells. […] Immunoreactive bands were detected by enhanced chemiluminescence reagent (Pierce, Rockford, Ill.). Blots were reprobed with an anti-β-actin goat polyclonal antibody (Santa Cruz Biotechnology) to control for protein loading and transfer. Densitometric values of protein bands were quantified using Scion Imaging Software (Scion Corp., Frederick, Md.).

[2] = test system: PEA3; test: Immunoblot analysis of PEA3 protein
Description: […] Louis, Mo.). […] […] A) Cell surface expression of Her-2/neu protein in BT-474 and SK-Br3 cells was determined by flow cytometry using a mouse anti-Her-2/neu antibody directed against the extracellular domain of the p185^Her-2/neu oncoprotein (clone Ab-5; Oncogene Research Products; San Diego, Calif.). Briefly, after GLA or control treatment, cells were washed, harvested, resuspended in phosphate-buffered saline (PBS) containing 1% FBS, and incubated with 5 μg/mL Ab-5 antibody for 1 hour at 4° C. The cells were washed again and then incubated with a fluorescein isothiocyanate (FITC)-conjugated anti-mouse IgG secondary antibody (Jackson ImnunoResearch Laboratories, West Grove, Pa.) diluted 1:200 in cold PBS containing 1% FBS for 45 minutes at 4° C. The cells were washed once more in cold PBS, and flow cytometric analysis was performed with a FACScalibur flow cytometer (Becton Dickinson, San Diego, Calif.) equipped with Cell Quest Software (Becton Dickinson). […] As a control for nonspecific immunofluorescence, cells were stained with the secondary antibody alone (solid black line). The mean fluorescence signal associated with cells for labeled p185^Her-2/neu was quantified using the Geo Mean (GM) fluorescence parameter provided with the software. […] B) Immunoblot analysis of Her-2/neu and PEA3 proteins in control- and GLA-treated BT-474 and SK-Br3 cells. Cells were washed twice with PBS and then lysed in buffer (20 m M Tris [pH 7.5], 150 m M NaCl, 1 mM EDTA, 1 m M EGTA, 1% Triton X-100, 2.5 m M sodium pyrophosphate, 1 mM β-glycerolphosphate, 1 mM Na3VO4, 1 μg/ml leupeptin, 1 mM phenylmethylsulfonyl fluoride) for 30 minutes on ice. Equal amounts of protein (10 μg) were heated in sodium dodecyl sulfate (SDS) sample buffer for 10 minutes at 70° C., subjected to electrophoresis on either 3-8% NuPAGE Tris-acetate (p185^Her-2/neu) or 10% SDS-polyacrylamide gel electrophoresis (PEA3) gels, and transferred to nitrocellulose membranes. Nonspecific binding was blocked by incubation for 1 hour with TBS-T (25 mM Tris-HCl [pH 7.5], 150 mM NaCl, and 0.05% Tween-20) containing 5% nonfat dry milk. The treated filters were washed in TBS-T and then incubated with primary antibodies, anti-p185^Her-2/neu mouse monoclonal antibody—Clone Ab-3 [Oncogene Research Products, San Diego, Calif.] and anti-PEA3 mouse monoclonal antibody—sc-113 [Santa Cruz Biotechnology, Santa Cruz, Calif.], for 2 hours in TBS-T containing 5% (w/v) nonfat dry milk. The membranes were washed in TBS-T and horseradish peroxidase—conjugated secondary antibodies in TBS-T were added for 45 minutes. Immunoreactive bands were detected by enhanced chemiluminescence reagent (Pierce, Rockford, Ill.). Blots were reprobed with an anti-β-actin goat polyclonal antibody (Santa Cruz Biotechnology) to control for protein loading and transfer. Densitometric values of protein bands were quantified using Scion Imaging Software (Scion Corp., Frederick, Md.).

[3] = test system: AP-2; test: AP-2 expression levels

How did the “reduction of cell surface-associated p185^Her-2/neu expression” value ([1]; BT-474 cells) turn out when `CCCCCCCCC=CCCCCCCCC(=O)O` [OA, 9-octadecenoic acid] was run?
Its value is “up to 46%”.

What about the “down-regulation of p185^Her-2/neu expression” value ([1]; BT-474 cells, alone or concurrently combined) of the same molecule?
Its value is 36%.

What about the “reduction of cell surface-associated p185^Her-2/neu expression” value ([1]; SK-Br3 cells) of the same molecule?
The value was “up to 36%”.

What about the “down-regulation of p185^Her-2/neu expression” value ([1]; SK-Br3 cells, alone or combined) of the same molecule?
Its value is 24%.

And the PEA3 protein levels ([2]; MCF-7/neo cells, OA supplementation)?
Its PEA3 protein levels is “not significantly affected”.

And the PEA3 protein expression ([2]; SK-Br3, SK-OV3 and NCI-N87, OA 20 μM, 48 hours)?
Its PEA3 protein expression is “significant up-regulation”.

What about the AP-2 expression levels ([3]; Her-2/neu-overexpressing cancer cells, OA supplementation) of the same molecule?
Its AP-2 expression levels is “failed to modulate”.

What does the source list for `CCCCCC=CCC=CCC=CCCCCC(=O)O` [GLA, 6,9,12-octadecatrienoic acid]?
levels of cell surface-associated Her-2/neu protein versus vehicle-treated cells ([1]; BT-474 and SK-Br3 cells, GLA 10 μg/mL for 48 hours): substantially lower; levels of PEA3 protein ([2]; BT-474 and SK-Br3, GLA 10 μg/mL for 48 hours): increase; levels of PEA3 protein ([2]; MDA-MB-231, GLA exposure): not changed substantially; PEA3 protein expression ([2]; MDA-MB-453, SK-OV3 and NCI-N87, GLA 10 μg/mL for 48 hours): increased; AP-2 expression ([3]; GLA-treated cells): does not appear to regulate
